From patent publication US8138175B2, “Heterocyclyl compounds” (Hoffmann-La Roche Inc., priority 2008, dated 2012)
pIC50: −log10 of the molar value.

Target: T1, human chemokine receptor 2 isoform B (Homo sapiens, UniProt P41597)
T1 construct: host or cells: CHOK1-CCR2B-A5 (CHO-K1) cells
T1 sequence (P41597 1-360 isoform P41597-2): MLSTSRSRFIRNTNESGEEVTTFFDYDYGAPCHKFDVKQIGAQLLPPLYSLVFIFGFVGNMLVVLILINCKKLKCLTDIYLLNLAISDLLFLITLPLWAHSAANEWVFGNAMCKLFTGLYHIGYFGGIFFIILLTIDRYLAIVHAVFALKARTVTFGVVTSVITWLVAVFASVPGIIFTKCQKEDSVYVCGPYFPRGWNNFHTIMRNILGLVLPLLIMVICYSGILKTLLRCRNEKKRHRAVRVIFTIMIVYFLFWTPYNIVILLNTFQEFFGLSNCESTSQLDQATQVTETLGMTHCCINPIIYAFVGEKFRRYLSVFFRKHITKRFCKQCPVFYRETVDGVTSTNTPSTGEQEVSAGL
Assay: Calcium mobilization assay
Type: cell-based
Conditions: Ca mobilization assay for CCR2; CHOK1-CCR2B-A5 cells; antagonist activity against 20 nM MCP-1; FLIPR, Fluo-4
Procedure: Calcium Mobilization Assay
CHOK1-CCR2B-A5 cells (from Euroscreen) stably overexpressing the human chemokine receptor 2 isoform B were cultured in Nutrient Hams F12 medium supplemented with 5% FBS, 100 U/ml penicillin, 100 μg/ml streptomycin, 400 μg/ml G418 and 5 μg/ml puromycin.
For the assay cells were grown overnight in 384-well black clear flat bottom polystyrene plates (Costar) at 37° C. at 5% CO2. After washing with DMEM, 20 mM Hepes, 2.5 mM probenecid, 0.1% BSA (DMEM assay buffer) cells were loaded with 4 μM Fluo-4 in the same DMEM assay buffer for 2 hours at 30° C. Excess dye was removed and cells were washed with DMEM assay buffer. 384-well compound plates were prepared with DMEM assay buffer/0.5% dimethyl sulfoxide with or without various concentrations of test compounds. Usually compounds were tested for agonist and antagonist activity.
Test compounds were added to the assay plate and agonist activity was monitored as fluorescence for 80 seconds with a FLIPR (488 nm excitation; 510-570 nm emission; Molecular Devices). After 20-30 min. of incubation at 30° C., 20 nM MCP-1 (R&D; Roche) was added and fluorescence was monitored again for 80 seconds. Increases in intracellular calcium are reported as maximum fluorescence after agonist exposure minus basal fluorescence before exposure. Antagonist activity is indicated as inhibitor concentration required for 50% inhibition of specific calcium increases.

Row | Structure (SMILES) | pIC50
1 | C[C@H]1C(=O)N(CCCN2CCC3(CC3)[C@H](O)C2)CCN1c1ccc(-c2ccccc2)cc1 [Example 80, (S)-4-Biphenyl-4-yl-1-[3-((S)-4-hydroxy-6-aza-spiro[2.5]oct-6-yl)-propyl]-3-methyl-piperazin-2-one] | 6.50
2 | CN(C)C(=O)[C@H](CCN1CCC2(CC2)[C@H](O)C1)N1CCN(c2ccc(Cl)c(Cl)c2)CCC1=O [Example 59, (S)-2-[4-(3,4-Dichloro-phenyl)-7-oxo-[1,4]diazepan-1-yl]-4-((S)-4-hydroxy-6-aza-spiro[2.5]oct-6-yl)-N,N-dimethyl-butyramide] | 7.10
3 | C[C@H]1C(=O)N(CCCN2CCC3(CC3)[C@H](O)C2)CCN1c1ccc(F)c(OC(F)(F)F)c1 [Example 86, (S)-4-(4-Fluoro-3-trifluoromethoxy-phenyl)-1-[3-((S)-4-hydroxy-6-aza-spiro[2.5]oct-6-yl)-propyl]-3-methyl-piperazin-2-one] | 7.48
4 | CC1C(=O)N(CCCN2CCCCC2)CCN1c1ccc(Cl)c(C(F)(F)F)c1 (stereo not drawn) [Example 70, 4-(4-Chloro-3-trifluoromethyl-phenyl)-3-methyl-1-(3-piperidin-1-yl-propyl)-piperazin-2-one] | 6.24
5 | CC1C(=O)N(C(CO)CCN2CCC3(CC3)[C@H](O)C2)CCN1c1cccc(OC(F)(F)F)c1 (stereo partly drawn) [Example 49, 1-[3-((S)-4-hydroxy-6-aza-spiro[2.5]oct-6-yl)-1-hydroxymethyl-propyl]-3-methyl-4-(3-trifluoromethoxy-phenyl)-piperazin-2-one] | 8.30
6 | CC[C@H]1C(=O)N(CCCN2CCC3(CC3)[C@H](O)C2)CCN1c1ccc(Cl)c(Cl)c1 [Example 87, (S)-4-(3,4-Dichloro-phenyl)-3-ethyl-1-[3-((S)-4-hydroxy-6-aza-spiro[2.5]oct-6-yl)-propyl]-piperazin-2-one] | 7.28
7 | O=C1CCN(c2cccc(Cl)c2)CCN1[C@H](CO)CCN1CCC2(CC2)[C@H](O)C1 [Example 4, 1-(3-Chloro-phenyl)-4-[(S)-3-((S)-4-hydroxy-6-aza-spiro[2.5]oct-6-yl)-1-hydroxymethyl-propyl]-[1,4]diazepan-5-one] | 7.22
8 | COCC(CCCN1CCC2(CC2)[C@H](O)C1)N1CCN(c2cccc(C(F)(F)F)c2)CCC1=O (stereo partly drawn) [Example 28, 4-[(R,S)-4-((S)-4-Hydroxy-6-aza-spiro[2.5]oct-6-yl)-t-methoxymethyl-butyl]-1-(3-trifluoromethyl-phenyl)-[1,4]diazepan-5-one] | 6.40
9 | O=C1CCN(c2ccc(OC(F)(F)F)cc2)CCN1[C@H](CO)CCN1CCC2(CC2)[C@H](O)C1 [Example 12, 4-[(S)-3-((S)-4-Hydroxy-6-aza-spiro[2.5]oct-6-yl)-1-hydroxymethyl-propyl]-1-(4-trifluoromethoxy-phenyl)-[1,4]diazepan-5-one] | 6.92
10 | COC(=O)[C@H](CCN1CCC2(CC2)[C@H](O)C1)N1CCN(c2cccc(OC(F)(F)F)c2)CCC1=O [Example 13, (S)-4-((S)-4-Hydroxy-6-aza-spiro[2.5]oct-6-yl)-2-[7-oxo-4-(3-trifluoromethoxy-phenyl)-[1,4]diazepan-1-yl]-butyric acid methyl ester] | 7.52
11 | COCC(CCN1CCC2(CC2)[C@H](O)C1)N1CCN(c2cccc(C(F)(F)F)c2)C(C)C1=O (stereo partly drawn) [Example 56, 1-[3-((S)-4-Hydroxy-6-aza-spiro[2.5]oct-6-yl)-1-methoxymethyl-propyl]-3-methyl-4-(3-trifluoromethyl-phenyl)-piperazin-2-one] | 8.00
12 | O=C1CCN(c2cccc(OC(F)(F)F)c2)CCN1C(CO)CCCN1CCC2(CC2)[C@H](O)C1 (stereo partly drawn) [Example 32, 4-[(R,S)-4-((S)-4-Hydroxy-6-aza-spiro[2.5]oct-6-yl)-1-hydroxymethyl-butyl]-1-(3-trifluoromethoxy-phenyl)-[1,4]diazepan-5-one] | 6.85
13 | COC[C@H](CCN1C[C@@H](C)C[C@H](O)C1)N1CCN(c2cccc(C(F)(F)F)c2)CCC1=O [Example 24, 4-[(S)-3-((3S,5S)-3-Hydroxy-5-methyl-piperidin-1-yl)-1-methoxymethyl-propyl]-1-(3-trifluoromethyl-phenyl)-[1,4]diazepan-5-one] | 7.05
14 | O=C1CCN(c2cccc(OC(F)(F)F)c2)CCN1[C@H](CO)CCN1CCC2(CC2)[C@H](O)C1 [Example 14, 4-[(S)-3-((S)-4-Hydroxy-6-aza-spiro[2.5]oct-6-yl)-1-hydroxymethyl-propyl]-1-(3-trifluoromethoxy-phenyl)-[1,4]diazepan-5-one] | 8.00
15 | C[C@H]1C(=O)N(CCCN2CCCCC2)CCN1c1cccc(OC(F)(F)F)c1 [Example 42, (S)-3-Methyl-1-(3-piperidin-1-yl-propyl)-4-(3-trifluoromethoxy-phenyl)-piperazin-2-one] | 6.74
16 | C[C@H]1C(=O)N(CCCN2CCC3(CC3)[C@H](O)C2)CCN1c1ccc(C(F)(F)F)c(F)c1 [Example 102, (S)-4-(3-Fluoro-4-trifluoromethyl-phenyl)-1-[3-((S)-4-hydroxy-6-aza-spiro[2.5]oct-6-yl)-propyl]-3-methyl-piperazin-2-one] | 8.22
17 | CC1C(=O)N(CCCN2CCCCC2)CCN1c1ccc(Cl)c(Cl)c1 (stereo not drawn) [Example 71, 4-(3,4-Dichloro-phenyl)-3-methyl-1-(3-piperidin-1-yl-propyl)-piperazin-2-one] | 6.65
18 | CC1C(=O)N(CCCN2CCC3(CC3)[C@H](O)C2)CCN1c1cccc(I)c1 (stereo partly drawn) [Example 89, 1-[3-((S)-4-Hydroxy-6-aza-spiro[2.5]oct-6-yl)-propyl]-4-(3-iodo-phenyl)-3-methyl-piperazin-2-one] | 7.46
19 | CC1C(=O)N(CCCN2CCCCC2)CCN1c1cccc(C(F)(F)F)c1 (stereo not drawn) [Example 51, 3-Methyl-1-(3-piperidin-1-yl-propyl)-4-(3-trifluoromethyl-phenyl)-piperazin-2-one] | 6.72
20 | COC(=O)[C@H](CCN1C[C@@H](C)C[C@H](O)C1)N1CCN(c2cccc(C(F)(F)F)c2)CCC1=O [Example 7, (S)-4-((3S,5S)-3-Hydroxy-5-methyl-piperidin-1-yl)-2-[7-oxo-4-(3-trifluoromethyl-phenyl)-[1,4]diazepan-1-yl]-butyric acid methyl ester] | 7.05
21 | CC1C(=O)N(C(CO)CCN2CCC3(CC3)[C@H](O)C2)CCN1c1cccc(C(F)(F)F)c1 (stereo partly drawn) [Example 55, 1-[3-((S)-4-Hydroxy-6-aza-spiro[2.5]oct-6-yl)-1-hydroxymethyl-propyl]-3-methyl-4-(3-trifluoromethyl-phenyl)-piperazin-2-one] | 8.00
22 | COC(=O)C(CCN1CCC2(CC2)[C@H](O)C1)N1CCN(c2cccc(OC(F)(F)F)c2)C(C)C1=O (stereo partly drawn) [Example 47, 4-((S)-4-Hydroxy-6-aza-spiro[2.5]oct-6-yl)-2-[3-methyl-2-oxo-4-(3-trifluoromethoxy-phenyl)-piperazin-1-yl]-butyric acid methyl ester] | 8.00
23 | COC(=O)[C@H](CCN1CCC2(CC2)[C@H](O)C1)N1CCN(c2ccc(C(F)(F)F)cc2)CCC1=O [Example 19, (S)-4-((S)-4-Hydroxy-6-aza-spiro[2.5]oct-6-yl)-2-[7-oxo-4-(4-trifluoromethyl-phenyl)-[1,4]diazepan-1-yl]-butyric acid methyl ester] | 6.39
24 | CN(C)C(=O)[C@H](CCN1CCC2(CC2)[C@H](O)C1)N1CCN(c2cccc(C(F)(F)F)c2)CCC1=O [Example 22, (S)-4-((S)-4-Hydroxy-6-aza-spiro[2.5]oct-6-yl)-N,N-dimethyl-2-[7-oxo-4-(3-trifluoromethyl-phenyl)-[1,4]diazepan-1-yl]-butyramide] | 7.00
25 | COC(=O)[C@@H](CCN1CCC2(CC2)[C@H](O)C1)N1CCN(c2cccc(C(F)(F)F)c2)CCC1=O [Example 8, (R)-4-((S)-4-Hydroxy-6-aza-spiro[2.5]oct-6-yl)-2-[7-oxo-4-(3-trifluoromethyl-phenyl)-[1,4]diazepan-1-yl]-butyric acid methyl ester] | 6.22
26 | COC(=O)[C@H](CCN1CCC2(CC2)[C@H](O)C1)N1CCN(c2cccc(C(F)(F)F)c2)CCC1=O [Example 5, (S)-4-((S)-4-Hydroxy-6-aza-spiro[2.5]oct-6-yl)-2-[7-oxo-4-(3-trifluoromethyl-phenyl)-[1,4]diazepan-1-yl]-butyric acid methyl ester] | 7.70
27 | COC[C@H](CCN1CCC2(CC2)[C@H](O)C1)N1CCN(c2cccc(C(F)(F)F)c2)CCC1=O [Example 23, 4-[(S)-3-((S)-4-Hydroxy-6-aza-spiro[2.5]oct-6-yl)-1-methoxymethyl-propyl]-1-(3-trifluoromethyl-phenyl)-[4]diazepan-5-one] | 8.00
